Where “and” joins values, the source holds several entries; their conditions need not be identical. Equal entries are not always repeated.
Columns and labels:
[1] = biological target: H1 (Cavia porcellus, UniProt P31389); experiment: H1-antihistaminic activity in vitro: histamine-induced contractions of isolated guinea-pig ileum; conditions: pH 7.4, 37° C., 20 min after antagonist, (n) given
Protocol: H1 -antihistaminic activity in vitro: Histamine-induced contractions of isolated guinea-pig ileum.
Distal ileum was obtained from male albino guinea pig (300-500 g). All animals were fasted overnight and killed by cervical dislocation and then exsanguinated. […] The tissue was washed by upward displacement of the bathing fluid. With an effective 1.2 g loading tension, the ileum was kept for 45 min (stabilization period). An accumulative dose-response curve for histamine was isotonically recorded with increasing concentrations and the tissue, after washing with Tyrode solution, was allowed to equilibrate. Twenty minutes later a second concentration-response curve was obtained previous addition of different concentrations of antagonist drugs. The results were calculated from the concentration-response curves for histamine at each drug concentration. All the concentrations were tested 2 to 4 times.

[2] = test system: H1; experiment: H1-antihistaminic activity in vivo: vascular permeability increase induced by histamine in rats; set-up: species or system rat (female Wistar)
Protocol: H1 -antihistaminic activity in vivo: Vascular permeability increase induced by histamine in rats.
Female Wistar rats (120-150 g) were used. They were fasted for 18 hours prior to the assay. […] 30 min after the dye injection, animals were sacrificed and the skin was removed. The extravasated dye sites were extracted with formamide and the dye spectrophotometrically evaluated.

[3] = test system: homologous passive cutaneous anaphylaxis (PCA); experiment: Antiallergic activity in vivo: vascular permeability increase induced by 48 hours homologous passive cutaneous anaphylaxis (PCA) in rats; set-up: species or system rat (female Wistar)
Protocol: Antiallergic activity in vivo: Vascular permeability increase induced by 48 hours homologous passive cutaneous anaphylaxis (PCA) in rats. Female Wistar rats (120-150 g) were used. They were sensitized passively by intradermic injections of homologous ovoalbumin antiserum on both sides of the middle shaved-back line of the rat. Forty-eight hours later each test compound was administered orally at doses of 1 mg/kg (5 mg/kg when R^1 is a methyl group) and 1 h later PCA reaction was induced by iv injection of Evans blue solution and ovoalbumin in PSS solution. The animals were sacrificed 30 minutes after the dye injection and the skin was removed. The extravasated dye sites were extracted with formamide and the dye spectrophotometrically evaluated.

[4] = test system: CNS; experiment: Preliminary study similar to Irwin's test in mice: effect on CNS; assay type: in vivo; set-up: key: --: If no effects were detected, no figures are shown
Protocol: A preliminary study similar to Irwins's test in mice was carried out at doses of 100 and 300 mg/kg at 1, 2, 3, 4 and 24 hours after the treatment. As reference ketotifene was used.

[5] = rat, oral, 1 mg/kg, 1 hour before histamine
[6] = rat, oral, 1 mg/kg, 1 h before PCA reaction
[7] = 100 mg/kg, 1, 2, 3, 4 and 24 hours
[8] = 300 mg/kg, 1, 2, 3, 4 and 24 hours

Sequence of H1 (Cavia porcellus, UniProt P31389) (P31389 whole entry): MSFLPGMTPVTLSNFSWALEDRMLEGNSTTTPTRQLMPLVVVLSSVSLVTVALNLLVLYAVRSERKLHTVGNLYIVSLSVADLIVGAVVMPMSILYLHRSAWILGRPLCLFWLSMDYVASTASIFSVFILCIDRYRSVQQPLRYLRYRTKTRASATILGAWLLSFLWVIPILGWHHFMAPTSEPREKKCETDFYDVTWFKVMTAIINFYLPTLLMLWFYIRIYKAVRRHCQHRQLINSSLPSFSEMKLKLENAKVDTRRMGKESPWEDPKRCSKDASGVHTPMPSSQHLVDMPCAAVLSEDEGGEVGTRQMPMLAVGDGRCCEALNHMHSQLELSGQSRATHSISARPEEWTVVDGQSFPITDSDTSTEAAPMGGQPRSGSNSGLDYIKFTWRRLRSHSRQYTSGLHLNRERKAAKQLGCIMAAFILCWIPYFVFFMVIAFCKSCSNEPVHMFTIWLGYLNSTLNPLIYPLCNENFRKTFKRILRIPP

| SMILES | pD'2 [1] | Inhibition of the increase of vascular permeability by Histamine [2, 5] [%] | Inhibition of the increase of vascular permeability by P.C.A. [3, 6] [%] | Convulsions [4, 7] | Death [4, 7] | Hypothermia [4, 7] | Loss of pinneal reflex [4, 7] | Loss of right-time reflex [4, 7] | Palpebral Ptosis [4, 7] | Spontaneous Activity decrease [4, 7] | Convulsions [4, 8] | Death [4, 8] | Hypothermia [4, 8] | Loss of pinneal reflex [4, 8] | Loss of right-time reflex [4, 8] | Palpebral Ptosis [4, 8] | Spontaneous Activity decrease [4, 8] | Spontaneous Activity decrease ([4]; 300 mg/kg, 1, 2, 3, 4 and 24 hours, 300 mg/kg) | Inhibition of the increase of vascular permeability by Histamine ([2]; po, 5 mg/kg) [%] | Inhibition of the increase of vascular permeability by P.C.A. ([3]; po, 5 mg/kg) [%] |
| --- | --- | --- | --- | --- | --- | --- | --- | --- | --- | --- | --- | --- | --- | --- | --- | --- | --- | --- | --- | --- |
| CCOCCn1c(C2CCN(Cc3ccc(C(C)(C)C)cc3)CC2)nc2ccccc21 [1 CH2 CH3] | 7.08 | 70 | 47 | -- | -- | -- | -- | -- | -- | -- | 4/4 | -- | -- | -- | -- | -- | 4/4 |  |  |  |
| COc1ccc(CCN2CCC(Nc3nc4ccccc4n3Cc3ccc(F)cc3)CC2)cc1 [Astemizole, reference compound] |  |  | 38 |  |  |  |  |  |  |  |  |  |  |  |  |  |  |  |  |  |
| CC(C)(C)c1ccc(C(O)CCCN2CCC(C(O)(c3ccccc3)c3ccccc3)CC2)cc1 (stereo not shown) [Terfenadine, reference compound] |  | 20 | 37 |  |  |  |  |  |  |  |  |  |  |  |  |  |  |  |  |  |
| CC(C)OCCn1c(C2CCN(CCc3ccc(C(C)(C)C)cc3)CC2)nc2ccccc21 [2 CH(CH3)2, 2-[1-(2-(4-(1,1-dimethylethyl)-phenyl)ethyl)piperidin-4-yl]-1-[2-(1-methylethoxy)ethyl]-1H-benzimidazole] | 7.00 | 25 | 30 |  |  |  |  |  |  |  |  |  |  |  |  |  |  |  |  |  |
| CCOCCn1c(C2CCN(CCc3ccc(C(C)(C)C)cc3)CC2)nc2ccccc21 [2 CH2 CH3, 2-[1-(2-(4-(1,1-dimethylethyl)-phenyl)ethyl)piperidin-4-yl]-1-(2-ethoxyethyl)-1H-benzimidazole] | 7.52 | 60 | 40 | -- | -- | -- | -- | -- | -- | -- | -- | -- | -- | -- | -- | -- |  | -- and 2/4 |  |  |
| COCCn1c(C2CCN(Cc3ccc(C(C)(C)C)cc3)CC2)nc2ccccc21 [1 CH3, 2-[1-((4-(1,1-dimethylethyl)phenyl)methyl)piperidine-4-yl]-1-(2-methoxyethyl)-1H-benzimidazole] | 6.75 |  |  | -- | -- | 2/4 | -- | -- | -- | 3/4 | 4/4 | 4/4 | 4/4 | 4/4 | 4/4 | 4/4 | 4/4 |  | 70 | 70 |
| CN1CCC(=C2c3ccccc3CC(=O)c3sccc32)CC1 [Ketotifene, reference compound] |  |  |  | -- | -- | -- | -- | -- | -- | -- | -- | -- | 1/4 | -- | 1/4 | 1/4 | 2/4 |  |  |  |
| CC(C)OCCn1c(C2CCN(Cc3ccc(C(C)(C)C)cc3)CC2)nc2ccccc21 [1 CH(CH3)2, 2-[1-((4-(1,1-dimethylethyl)phenyl)methyl)piperidin-4-yl]-1-[(2-(1-methylethoxy)ethyl)]-1H-benzimidazole] | 7.30 | 50 | 40 | -- | -- | -- | -- | -- | -- | -- | -- | -- | -- | -- | -- | -- | -- |  |  |  |

Source: US5322850A, “Antiallergic piperidine derivatives of benzimidazole” (Fabrica Espanola de Productos Quimicos y Farmaceuticos, S.A., priority 1992, dated 1994)
